Measurements taken from US9993449B2, “(S)-3-amino-4-(difluoromethylenyl)cyclopent-1-ene-1-carboxylic acid, and related compounds as GABA aminotransferase inactivators for the treatment of epilepsy, addiction and hepatocellular carcinoma” (NORTHWESTERN UNIVERSITY, priority 2015, dated 2018).
Where a name gives a salt, the structure may show the parent alone.

Legend:
[1] = target: T1, CYP2D6 (Homo sapiens, UniProt P10635); assay: CYP2D6 inhibition (HLM, dextromethorphan substrate); assay type: in vitro ADME; settings: 10 μM, 10 min at 37° C.
T1 construct: tissue Eurofins Panlabs; host or cells: human liver microsomes
Experimental: (§1) Inhibition of Microsomal Cytochromes P450. The experiments were performed by Eurofins Panlabs (Redmond, Wash. 98052, USA). CYP1A inhibition (HLM, phenacetin substrate), CYP2B6 inhibition (HLM, bupropion substrate), CYP2C8 inhibition (HLM, paclitaxel substrate), CYP2C9 inhibition (HLM, diclofenac substrate), CYP2C19 inhibition (HLM, omeprazole substrate), CYP2D6 inhibition (HLM, dextromethorphan substrate), and CYP3A inhibition (HLM, midazolam and testosterone substrates) were tested. The test concentration was 10 μM. The incubation time was 10 min at 37° C. The detection method was by HPLC-MS/MS. The experiments were duplicated, and the % inhibition of the control values was averaged (FIG. 8).

[2] = target: T2, CYP2C8 (Homo sapiens, UniProt P10632); assay: CYP2C8 inhibition (HLM, paclitaxel substrate); assay type: in vitro ADME; settings: 10 μM, 10 min at 37° C.
T2 construct: tissue Eurofins Panlabs; host or cells: human liver microsomes
T2 sequence (P10632 1-490): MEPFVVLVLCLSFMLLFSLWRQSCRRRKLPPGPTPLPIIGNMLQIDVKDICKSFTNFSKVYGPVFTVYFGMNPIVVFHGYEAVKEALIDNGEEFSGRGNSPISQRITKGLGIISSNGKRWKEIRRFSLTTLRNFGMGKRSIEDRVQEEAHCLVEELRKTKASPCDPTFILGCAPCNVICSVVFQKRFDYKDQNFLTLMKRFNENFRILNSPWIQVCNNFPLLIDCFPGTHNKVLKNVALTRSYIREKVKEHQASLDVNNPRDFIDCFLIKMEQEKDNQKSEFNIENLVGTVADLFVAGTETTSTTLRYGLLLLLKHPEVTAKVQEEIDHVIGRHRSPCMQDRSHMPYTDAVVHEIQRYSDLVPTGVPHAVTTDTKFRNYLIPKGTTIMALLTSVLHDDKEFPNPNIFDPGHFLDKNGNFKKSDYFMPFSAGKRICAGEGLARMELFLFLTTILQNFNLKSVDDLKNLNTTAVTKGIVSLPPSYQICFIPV
Experimental: as §1

[3] = Metabolic stability in human liver microsomes (LC-MS/MS); assay type: in vitro ADME; settings: for 90 min
Experimental: This was accomplished by incubating 1 with the microsomes and monitoring its disappearance with time using LC-MS/MS. Terfenadine was run in similar condition as a positive control.

[4] = target: T3, CYP2B6 (Homo sapiens, UniProt P20813); assay: CYP2B6 inhibition (HLM, bupropion substrate); assay type: in vitro ADME; settings: 10 μM, 10 min at 37° C.
T3 construct: tissue Eurofins Panlabs; host or cells: human liver microsomes
T3 sequence (P20813 1-491): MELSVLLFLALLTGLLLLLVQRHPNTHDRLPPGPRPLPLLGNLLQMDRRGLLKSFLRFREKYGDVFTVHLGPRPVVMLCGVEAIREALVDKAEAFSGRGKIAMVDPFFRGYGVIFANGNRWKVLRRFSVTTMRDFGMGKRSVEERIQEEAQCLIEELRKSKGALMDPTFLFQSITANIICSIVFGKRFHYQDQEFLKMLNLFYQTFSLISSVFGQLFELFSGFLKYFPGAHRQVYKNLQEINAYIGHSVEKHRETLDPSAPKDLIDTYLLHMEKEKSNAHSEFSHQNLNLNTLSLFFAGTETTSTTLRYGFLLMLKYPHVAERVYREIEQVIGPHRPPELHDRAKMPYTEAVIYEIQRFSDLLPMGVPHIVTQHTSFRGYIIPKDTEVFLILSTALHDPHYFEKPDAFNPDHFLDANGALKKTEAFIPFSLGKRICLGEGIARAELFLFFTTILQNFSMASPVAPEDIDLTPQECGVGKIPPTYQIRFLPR
Experimental: as §1

[5] = target: T4, hERG channel (Homo sapiens, UniProt Q12809); assay: Inhibition of the hERG channel (automated whole-cell patch clamp, hERG CHO-K1 cell line); assay type: cell-based; settings: 0.1 μM, 1 μM, and 10 μM; 5 min at room temperature
T4 construct: host or cells: CHO-K1
Experimental: Inhibition of the hERG Channel. The experiments were performed by Eurofins Panlabs (Redmond, Wash. 98052, USA). hERG CHO-K1 cell line was used. The test concentrations were 0.1 μM, 1 μM, and 10 μM. The incubation time was 5 min at room temperature, cumulatively. The detection method used an automated whole-cell patch clamp. The experiments were duplicated, and the % inhibition of the tail current was averaged (FIG. 7).

[6] = target: aspartate aminotransferase (Asp-AT); assay: Inhibition of aspartate aminotransferase; assay type: biochemical; settings: reversible inhibition
Experimental: Inhibition of Aspartate Aminotransferase by 1. Microtiter plate wells were loaded with 90 μL of an assay mixture containing 100 mM potassium phosphate at pH 7.4, 5.55 mM α-ketoglutarate, 1.11 mM NADH, 5.55 mM L-aspartate, 11.1 units of malic dehydrogenase, and various concentrations of 1. After incubation of the mixture at room temperature for a few min, 10 μL of Asp-AT (3.0 units/mL in 100 mM potassium phosphate at pH 7.4) was added. The plate was shaken at room temperature for 1 min, and the absorbance was measured at 340 nm every 6 s for 90 min. All assays were performed in duplicate (FIG. 4).

[7] = target: T5, ornithine aminotransferase (OAT) (Homo sapiens, UniProt P04181); settings: read-out: KI for inactivation of OAT
T5 sequence (P04181 26-439): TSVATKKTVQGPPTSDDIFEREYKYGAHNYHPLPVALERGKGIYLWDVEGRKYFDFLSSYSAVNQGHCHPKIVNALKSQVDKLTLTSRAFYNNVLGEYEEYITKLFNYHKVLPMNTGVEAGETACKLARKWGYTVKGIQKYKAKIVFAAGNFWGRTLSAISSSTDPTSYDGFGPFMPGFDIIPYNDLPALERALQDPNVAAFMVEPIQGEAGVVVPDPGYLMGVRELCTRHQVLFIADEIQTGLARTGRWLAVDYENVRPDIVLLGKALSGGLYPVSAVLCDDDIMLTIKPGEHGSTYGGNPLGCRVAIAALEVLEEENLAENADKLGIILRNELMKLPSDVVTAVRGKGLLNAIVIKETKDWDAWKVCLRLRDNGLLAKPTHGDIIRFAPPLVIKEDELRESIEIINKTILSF
Experimental: All assays were performed in duplicate, and the remaining OAT activity at each preincubation time at each inhibitor concentration was averaged. The natural logarithm of the percentage of the remaining OAT activity was plotted against the preincubation time at each inhibitor concentration to obtain the kobs (slope) value for each concentration. The kobs is the rate constant describing the inactivation at each inhibitor concentration. kobs is replotted against the inhibitor concentration using nonlinear regression analysis (GraphPad Prism 6™; GraphPad Software Inc.). KI and kinact were estimated from equation (3):

[8] = target: T6, CYP2C19 (Homo sapiens, UniProt P33261); assay: CYP2C19 inhibition (HLM, omeprazole substrate); assay type: in vitro ADME; settings: 10 μM, 10 min at 37° C.
T6 construct: tissue Eurofins Panlabs; host or cells: human liver microsomes
Experimental: as §1

[9] = Plasma protein binding; assay type: in vitro ADME
[10] = target: T7, CYP2C9 (Homo sapiens, UniProt P11712); assay: CYP2C9 inhibition (HLM, diclofenac substrate); assay type: in vitro ADME; settings: 10 μM, 10 min at 37° C.
T7 construct: tissue Eurofins Panlabs; host or cells: human liver microsomes
Experimental: as §1

T1 sequence (P10635 whole entry): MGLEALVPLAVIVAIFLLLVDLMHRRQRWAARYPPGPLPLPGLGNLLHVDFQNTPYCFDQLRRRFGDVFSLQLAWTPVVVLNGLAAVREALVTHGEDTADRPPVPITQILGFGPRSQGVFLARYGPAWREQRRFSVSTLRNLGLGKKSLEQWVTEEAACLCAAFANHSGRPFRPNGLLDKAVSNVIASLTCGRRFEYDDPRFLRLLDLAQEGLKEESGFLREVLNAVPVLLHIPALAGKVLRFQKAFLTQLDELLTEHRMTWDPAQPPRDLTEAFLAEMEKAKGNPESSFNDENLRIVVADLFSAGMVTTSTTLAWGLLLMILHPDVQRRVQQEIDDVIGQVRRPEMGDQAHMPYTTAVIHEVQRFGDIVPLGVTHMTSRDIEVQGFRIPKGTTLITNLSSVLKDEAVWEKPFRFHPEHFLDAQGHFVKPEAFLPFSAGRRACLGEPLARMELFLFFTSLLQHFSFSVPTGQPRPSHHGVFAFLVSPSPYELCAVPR
T7 sequence (P11712 whole entry): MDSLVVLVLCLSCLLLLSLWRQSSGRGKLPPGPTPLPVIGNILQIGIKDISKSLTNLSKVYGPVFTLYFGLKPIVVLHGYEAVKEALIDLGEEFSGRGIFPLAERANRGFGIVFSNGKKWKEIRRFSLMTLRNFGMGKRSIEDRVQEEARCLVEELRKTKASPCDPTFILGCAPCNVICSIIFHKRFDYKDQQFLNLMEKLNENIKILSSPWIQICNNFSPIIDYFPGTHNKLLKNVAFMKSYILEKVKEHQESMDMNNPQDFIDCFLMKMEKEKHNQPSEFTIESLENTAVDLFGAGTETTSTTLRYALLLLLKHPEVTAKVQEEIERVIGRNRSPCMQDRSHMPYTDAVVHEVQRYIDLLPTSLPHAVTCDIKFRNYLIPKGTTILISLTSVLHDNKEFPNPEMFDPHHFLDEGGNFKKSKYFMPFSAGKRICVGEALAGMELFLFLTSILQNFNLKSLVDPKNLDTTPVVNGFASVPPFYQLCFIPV
T4 sequence (Q12809 whole entry): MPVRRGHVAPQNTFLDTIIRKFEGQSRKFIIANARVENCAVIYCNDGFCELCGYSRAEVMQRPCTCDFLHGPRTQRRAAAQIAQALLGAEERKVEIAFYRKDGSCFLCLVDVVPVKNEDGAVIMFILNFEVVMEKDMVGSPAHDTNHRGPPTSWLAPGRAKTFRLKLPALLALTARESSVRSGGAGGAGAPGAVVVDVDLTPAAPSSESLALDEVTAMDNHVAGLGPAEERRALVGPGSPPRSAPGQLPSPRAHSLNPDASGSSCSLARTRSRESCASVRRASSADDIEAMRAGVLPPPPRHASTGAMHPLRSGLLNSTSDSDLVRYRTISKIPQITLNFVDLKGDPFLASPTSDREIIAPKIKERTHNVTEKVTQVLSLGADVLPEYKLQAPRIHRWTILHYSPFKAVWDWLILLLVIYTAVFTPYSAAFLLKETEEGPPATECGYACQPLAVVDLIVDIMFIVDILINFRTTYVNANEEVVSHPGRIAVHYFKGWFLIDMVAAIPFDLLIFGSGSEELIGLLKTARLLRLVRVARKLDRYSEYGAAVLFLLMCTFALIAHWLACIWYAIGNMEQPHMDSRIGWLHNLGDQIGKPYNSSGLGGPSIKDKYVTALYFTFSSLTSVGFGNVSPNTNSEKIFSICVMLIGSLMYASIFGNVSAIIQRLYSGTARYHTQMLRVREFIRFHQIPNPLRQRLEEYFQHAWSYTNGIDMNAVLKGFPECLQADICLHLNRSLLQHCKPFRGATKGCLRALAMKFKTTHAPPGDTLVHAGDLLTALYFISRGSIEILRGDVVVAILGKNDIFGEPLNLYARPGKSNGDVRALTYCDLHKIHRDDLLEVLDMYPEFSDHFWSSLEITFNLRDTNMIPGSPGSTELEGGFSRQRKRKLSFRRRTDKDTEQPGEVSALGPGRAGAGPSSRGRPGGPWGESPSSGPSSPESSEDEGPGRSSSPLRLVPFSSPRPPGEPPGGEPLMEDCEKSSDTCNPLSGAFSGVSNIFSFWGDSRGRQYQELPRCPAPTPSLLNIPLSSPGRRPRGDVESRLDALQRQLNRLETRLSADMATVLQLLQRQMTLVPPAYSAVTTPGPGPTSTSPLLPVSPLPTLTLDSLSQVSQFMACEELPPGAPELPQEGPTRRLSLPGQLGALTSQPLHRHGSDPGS
T6 sequence (P33261 whole entry): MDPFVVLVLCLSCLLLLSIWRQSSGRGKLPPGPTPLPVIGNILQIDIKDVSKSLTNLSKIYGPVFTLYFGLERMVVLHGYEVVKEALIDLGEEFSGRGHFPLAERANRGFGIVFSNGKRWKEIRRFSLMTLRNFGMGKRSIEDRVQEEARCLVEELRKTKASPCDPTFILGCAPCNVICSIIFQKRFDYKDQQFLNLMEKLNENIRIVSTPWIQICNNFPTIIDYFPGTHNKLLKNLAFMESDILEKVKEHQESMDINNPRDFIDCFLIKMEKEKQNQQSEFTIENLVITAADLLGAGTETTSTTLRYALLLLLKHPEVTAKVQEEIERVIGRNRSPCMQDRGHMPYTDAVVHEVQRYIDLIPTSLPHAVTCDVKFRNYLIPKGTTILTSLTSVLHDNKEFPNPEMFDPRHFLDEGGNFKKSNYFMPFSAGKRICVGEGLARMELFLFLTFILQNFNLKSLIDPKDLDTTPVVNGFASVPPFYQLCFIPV

SMILES: N[C@H]1C=C(C(=O)O)CC1=C(F)F [Compound 1, (S)-3-Amino-4-(difluoromethylenyl)cyclopent-1-ene-1-carboxylic acid Hydrochloride]
- inhibition or induction of CYP 2D6 [1]: does not inhibit or induce
- inhibition or induction of CYP 2C8 [2]: does not inhibit or induce
- metabolic stability in HLM [3]: stable
- inhibition or induction of CYP 2B6 [4]: does not inhibit or induce
- inhibition of the activity of the hERG channel [5]: does not inhibit
- IC50 [6]: > 4 mM
- KI (inactivation) [7]: 3.3 µM
- inhibition or induction of CYP 2C19 [8]: does not inhibit or induce
- fraction unbound [9]: 0.73
- inhibition or induction of CYP 2C9 [10]: does not inhibit or induce
